# According to paper PMC11599599, “Synthesis, characterization, molecular docking, pharmacokinetics, and molecular dynamics of new bis-thiazoles based on bis-thiosemicarbazone as anti-coxsackievirus” (Scientific Reports, 2024):
# How the values were obtained:
# Vero cells = experiment: Cytotoxicity assay on Vero cells (microscopic morphology); type: cell-based; parameters: key to Cytotoxicity on Vero cells (cell sheet affected): -: Safe concentration; + 1, +2, + 3, +4: about 25, 50, 75, 100% of cell sheet was affected respectively; + 1, +2, + 3, +4: about 25, 50, 75, 100% of cell sheet was affected respectively; + 1, +2, + 3, +4: about 25, 50, 75, 100% of cell sheet was affected respectively; + 1, +2, + 3, +4: about 25, 50, 75, 100% of cell sheet was affected respectively; M: masked (color of compounds made cells unseen); conditions: for Cytotoxicity on Vero cells (cell sheet affected): 24 h, morphological changes; for Safety effect on Vero cells (in words): Table 1, 24 h
# Procedure: (§1) Compounds: 10 mg were dissolved in 1 mL (10% DMSO and 90% deionized water), sterilized by 1% antibiotic–antimycotic mixture and stored in −20.
# (§2) Cells: Vero cell line was used. The cells were propagated in DMEM medium (Lonza, USA) supplemented with 10% fetal bovine serum (Gibco, USA), 1% antibiotic–antimycotic mixture (Lonza, USA).
# Cytotoxic effect of compounds was measured by inoculation different doses of compounds on tested cells then examining them microscopically after 24 h to determine any morphological changes that appeared on cells as a result of being subjected to the compounds[46]. Vero cells were seeded onto 96-well plates, which were then incubated for the whole night. After a 24-hour incubation period at 37 °C in a humidified incubator with 5% CO2, compounds were injected at concentrations of 10, 20, 30, 40, 50, 60, 70, 80, 90, and 100 µg /100 µl. Any morphological changes were monitored under a microscope.
# Cox B virus = experiment: Plaque reduction assay against Cox B virus; type: cell-based; conditions: for inhibition at 20 µg/mL / inhibition at 40 µg/mL: Vero
# Procedure: as §1, §2
# Virus: Cox B virus was propagated and titrated to give final count of 0.9 × 10^5 viral particle/mL.
# This test was done according to Tebas et al.[47], In a 12-well plate Vero cells (10^5 cells/mL) were cultivated for 1 day at 37 °C. The Cox B virus was mixed with the safe concentration of the compound and incubated for 1 h at 37 °C before being added to the cells. Following the removal of the growth media, the cells were injected with virus-extract combinations ([…]) and then rinsed with PBS (Phosphate Buffer Saline). Following a one-hour contact period for virus adsorption, the cell monolayer was supplemented with one milliliter of Dulbecco’s Modified Eagles Media (DMEM) containing 2% agarose. The plates were then allowed to solidify and incubated at 37 °C until the development of viral plaques. Formalin (10%) was added for 2 h then plates were stained with crystal violet. Control wells were included where untreated virus was incubated with Vero cells and finally plaques were counted and percentage reduction in plaques formation in comparison to control wells was recorded as following:
# % inhibition = (viral count(untreated) - viral count(treated))/viral count(untreated)X100.
SMILES,Cytotoxicity on Vero cells (cell sheet affected) (Vero cells; 10 µg/100µl),Cytotoxicity on Vero cells (cell sheet affected) (Vero cells; 20 µg/100µl),Cytotoxicity on Vero cells (cell sheet affected) (Vero cells; 30 µg/100µl),Cytotoxicity on Vero cells (cell sheet affected) (Vero cells; 40 µg/100µl),Cytotoxicity on Vero cells (cell sheet affected) (Vero cells; 50 µg/100µl),Cytotoxicity on Vero cells (cell sheet affected) (Vero cells; 60 µg/100µl),Cytotoxicity on Vero cells (cell sheet affected) (Vero cells; 70 µg/100µl),Cytotoxicity on Vero cells (cell sheet affected) (Vero cells; 80 µg/100µl),Cytotoxicity on Vero cells (cell sheet affected) (Vero cells; 90 µg/100µl),Cytotoxicity on Vero cells (cell sheet affected) (Vero cells; 100 µg/100µl),Safety effect on Vero cells (in words) (Vero cells),Viral count (treated) (Cox B virus; 20 ug/mL),Viral count (treated) (Cox B virus; 40 ug/mL),inhibition at 20 µg/mL (Cox B virus),inhibition at 40 µg/mL (Cox B virus),melting point
"COc1ccc(OC)c(C=C2/C(=N/Nc3nc(C)c(/N=N/c4ccc(C)cc4)s3)c3ccccc3/C2=N\Nc2nc(C)c(/N=N/c3ccc(C)cc3)s2)c1 [7b, 2,2’-(((1E,3E)−2-(2,5-dimethoxybenzylidene)−1H-indene-1,3(2H)-diylidene)bis(hydrazin-1-yl-2-ylidene))bis(4-methyl-5-((E)-p-tolyldiazenyl)thiazole)]",-,-,-,-,-,M,M,M,M,M,dense and coloured that made masking to the cell sheet,1.6 × 10^7,1.07 × 10^7,0%,33%,132 to 135 °C
"COc1ccc(OC)c(C=C2/C(=N/Nc3nc(C)c(/N=N/c4ccc(Cl)cc4)s3)c3ccccc3/C2=N\Nc2nc(C)c(/N=N/c3ccc(Cl)cc3)s2)c1 [7c, 2,2’-(((1E,3E)−2-(2,5-dimethoxybenzylidene)−1H-indene-1,3(2H)-diylidene)bis(hydrazin-1-yl-2-ylidene))bis(5-((E)-(4-chlorophenyl)diazenyl)−4-methylthiazole)]",-,-,-,-,-,-,-,-,M,M,dense and coloured that made masking to the cell sheet,1.07 × 10^7,1.6 × 10^7,33%,0%,
"COc1ccc(OC)c(C=C2/C(=N/Nc3nc(C)c(/N=N/c4ccc([N+](=O)[O-])cc4)s3)c3ccccc3/C2=N\Nc2nc(C)c(/N=N/c3ccc([N+](=O)[O-])cc3)s2)c1 [7d, 2,2’-(((1E,3E)−2-(2,5-dimethoxybenzylidene)−1H-indene-1,3(2H)-diylidene)bis(hydrazin-1-yl-2-ylidene))bis(4-methyl-5-((E)-(4-nitrophenyl)diazenyl)thiazole)]",-,-,-,-,-,-,-,-,-,-,higher safety,1.6 × 10^7,0.54 × 10^7,0%,66%,181 to 183 °C
"COc1ccc(OC)c(C=C2/C(=N/NC3=NC(=O)C(C)S3)c3ccccc3/C2=N\NC2=NC(=O)C(C)S2)c1 (stereo not drawn) [9b, 2,2’-(((1E,3E)−2-(2,5-dimethoxybenzylidene)−1H-indene-1,3(2H)-diylidene)bis(hydrazin-1-yl-2-ylidene))bis(5-methylthiazol-4(5H)-one)]",-,-,-,-,-,-,,,,,highly toxic at low concentration,,,,,198 to 200 °C
"COc1ccc(OC)c(C=C2/C(=N/Nc3nc(C)c(C(C)=O)s3)c3ccccc3/C2=N\Nc2nc(C)c(C(C)=O)s2)c1 [11a, 1,1’-((((1E,3E)−2-(2,5-dimethoxybenzylidene)−1H-indene-1,3(2H)-diylidene)bis(hydrazin-1-yl-2-ylidene))bis(4-methylthiazole-2,5-diyl))bis(ethan-1-one)]",-,-,,M,M,M,M,M,M,M,dense and coloured that made masking to the cell sheet,1.44 × 10^7,0.68 × 10^7,10%,57%,
"CCOC(=O)c1sc(N/N=C2/C(=Cc3cc(OC)ccc3OC)/C(=N/Nc3nc(C)c(C(=O)OCC)s3)c3ccccc32)nc1C [11b, Diethyl 2,2’-(((1E,3E)−2-(2,5-dimethoxybenzylidene)−1H-indene-1,3(2H)-diylidene)bis-(hydrazin-1-yl-2-ylidene))bis(4-methylthiazole-5-carboxylate)]",-,-,-,-,-,M,M,M,M,M,dense and coloured that made masking to the cell sheet,0.8 × 10^7,0.96 × 10^7,50%,40%,
"COc1ccc(OC)c(C=C2/C(=N/Nc3nc(C)cs3)c3ccccc3/C2=N\Nc2nc(C)cs2)c1 [11c, 2,2’-(((1E,3E)−2-(2,5-dimethoxybenzylidene)−1H-indene-1,3(2H)-diylidene)bis(hydrazin-1-yl-2-ylidene))bis(4-methylthiazole)]",-,-,-,-,-,-,-,-,M,M,dense and coloured that made masking to the cell sheet,0.84 × 10^7,0.57 × 10^7,47%,64%,
"COc1ccc(OC)c(C=C2C(=O)c3ccccc3C2=O)c1 [compound 1, 2-(2,5-dimethoxy-benzylidene)indan-1,3-dione]",-,-,-,-,-,-,-,-,-,-,higher safety,1.42 × 10^7,1.6 × 10^7,11%,0%,
